Results taken from patent US4473572A, “α2 -Adrenoceptor antagonistic benzoquinolizines” (John Wyeth & Brother, Limited, priority 1982, dated 1984).

Experiments:
α1-adrenoceptor = target: T1, α1-adrenoceptor (Rattus norvegicus, UniProt P43140); test: α1 antagonistic activity on the isolated anococcygeus muscle of the rat (against phenylephrine or methoxamine); conditions: antagonist of phenylephrine or methoxamine, 37°, 10^-6 to 10^-4 M test drug, 30 min equilibration, read-out: pA2 (α1) (converted)
T1 construct: isolated anococcygeus muscle of the rat; from tissue; host or cells: anococcygeus muscle of male rats (250-360 g)
T1 sequence (P43140 1-466): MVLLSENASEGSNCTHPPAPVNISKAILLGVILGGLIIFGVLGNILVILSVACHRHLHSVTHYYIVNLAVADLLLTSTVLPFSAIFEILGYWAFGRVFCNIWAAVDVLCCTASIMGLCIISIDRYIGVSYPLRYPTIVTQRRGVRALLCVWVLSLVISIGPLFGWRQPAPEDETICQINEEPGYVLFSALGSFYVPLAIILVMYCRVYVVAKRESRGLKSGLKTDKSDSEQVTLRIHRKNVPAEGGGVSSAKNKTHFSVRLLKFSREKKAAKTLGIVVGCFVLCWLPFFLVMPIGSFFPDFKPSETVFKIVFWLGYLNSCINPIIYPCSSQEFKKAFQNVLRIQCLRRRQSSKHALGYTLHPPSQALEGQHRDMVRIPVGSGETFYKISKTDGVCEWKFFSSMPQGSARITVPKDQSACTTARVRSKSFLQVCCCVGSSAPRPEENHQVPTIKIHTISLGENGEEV
Excerpt: The α1 antagonistic activity can be evaluated by a number of different methods. One method involves assessing the activity on the isolated anococcygeus muscle of the rat. The method is based on that of Gillespie, Br.J.Pharmac., 1972, 45, 404-416. In the procedure male rats (250-360 g) are killed by a blow on the head and bled. The two anococcygeus muscles are removed from their position in the midline of the pelvic cavity, where they arise from the upper coccygeal vertebrae. The muscles are suspended in 5 ml organ baths in Krebs solution containing 10^-4 M ascorbic acid, to prevent drug oxidation. The tissues are gassed with a 95% oxygen, 5% CO2 mixture and maintained at 37°. Longitudinal muscle contractions are recorded using isotonic transducers. Cumulative dose response curves are then obtained to phenylephrine or in some cases methoxamine, both agents being […] alpha adrenoceptor agonists. The concentration range of phenylephrine or methoxamine used is 0.02 to 0.8 μg.ml^-1. The agonist is then washed from the bath and the test drug added to the bathing medium at a concentration of 10^-6 M. After 30 min. equilibration with the test drug a further agonist dose response curve is obtained. The washing, equilibration and agonists dosing procedures are then repeated using 10^-5 M and 10^-4 M solutions of the test drug. Estimates of the pA2 value for the test drug as an antagonist of phenylephrine or methoxamine were made from the agonist dose-ratios using the method of Arunlakshana & Schild, Br.J.Pharmac.Chemother., 1959, 14, 48-58.

α2-adrenoceptor = target: T2, α2-adrenoceptor (Rattus norvegicus, UniProt P22909); test: α2-adrenoceptor antagonistic activity on the rat field stimulated vas deferens preparation (against clonidine); conditions: for α2/α1 selectivity: antilog of (α2 pA2 - α1 pA2); for Kb: rat field stimulated vas deferens, clonidine as agonist, 37°, 90 min after introduction of antagonist, Arunlakshana & Schild, read-out: pA2 (α2) (converted)
T2 construct: from tissue; host or cells: desheathed vas deferens of sexually mature rats
T2 sequence (P22909 1-465): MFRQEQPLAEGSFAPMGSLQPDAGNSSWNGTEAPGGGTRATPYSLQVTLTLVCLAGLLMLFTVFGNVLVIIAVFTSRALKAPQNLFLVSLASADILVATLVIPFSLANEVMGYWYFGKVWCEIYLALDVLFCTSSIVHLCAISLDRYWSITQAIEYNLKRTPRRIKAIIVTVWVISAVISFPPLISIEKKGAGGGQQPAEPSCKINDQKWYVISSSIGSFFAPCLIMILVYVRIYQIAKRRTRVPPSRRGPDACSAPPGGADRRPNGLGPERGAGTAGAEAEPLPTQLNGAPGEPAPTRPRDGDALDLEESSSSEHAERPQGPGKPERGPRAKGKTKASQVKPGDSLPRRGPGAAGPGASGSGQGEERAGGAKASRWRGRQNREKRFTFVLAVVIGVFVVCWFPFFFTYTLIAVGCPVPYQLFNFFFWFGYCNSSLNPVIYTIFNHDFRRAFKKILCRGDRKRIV
Experimental: The compounds of the invention were tested for their α2 -adrenoceptor antagonistic activity on the rat field stimulated vas deferens preparation using a modification of the method of Drew, Eur.J.Pharmac., 1977, 42, 123-130. The procedure is described below.
Desheathed vas deferentia from sexually mature rats were suspended in a 6 ml organ bath in Krebs solution at 37° and bubbled with 5% CO2 in oxygen. Platinum ring electrodes were positioned above and below the tissue for field stimulation, the stimulus parameters being 0.1 Hz 1 ms pulse width at supramaximal voltage. Twitch responses were recorded isotonically with a 0.5 g loading. Clonidine hydrochloride was used as the α-adrenoceptor agonist and cumulative concentration-response curves were constructed for the inhibition of twitch obtained with clonidine in the range 0.125 to 4 ng ml^-1. After washing out clonidine, the twitch response quickly recovered and an antagonist was then introduced into the Krebs reservoir. Clonidine concentration-response curves were repeated 90 min after introduction of the antagonist. The concentration of clonidine producing 50% inhibition of twitch before and after introduction of antagonist were obtained and the dose-ratio for clonidine was calculated. Various concentrations of the antagonists were used.
Chemother., 1959, 14, 48-58 and the values of pA2 and slope were calculated.

Kb (α1-adrenoceptor)	α2/α1 selectivity (α2-adrenoceptor)	Kb (α2-adrenoceptor)	Compound
3240 nM	46	70.8 nM	CN([C@H]1CCN2CCc3ccccc3[C@H]2C1)S(=O)(=O)C(F)(F)F (relative stereo) [Example 1, N-Methyl-N-(1,3,4,6,7,11bα-hexahydro-2H-benzo[a]quinolizin-2β-yl)-trifluoromethanesulphonamide]
1170 nM	43	27.5 nM	CN([C@H]1CCN2CCc3ccccc3[C@H]2C1)S(=O)(=O)CC(F)(F)F (relative stereo) [Example 2, N-Methyl-N-(1,3,4,6,7,11bα-hexahydro-2H-benzo[a]quinolizin-2β-yl)-2',2',2'-trifluoroethanesulphonamide]
245 nM	45	8.91 nM	CN([C@H]1CCN2CCc3ccccc3[C@H]2C1)S(=O)(=O)CCl (relative stereo) [Example 3, N-Methyl-N-(1,3,4,6,7,11bα-hexahydro-2H-benzo[a]quinolizin-2β-yl)chloromethanesulphonamide]
288 nM	27.5	8.32 nM	CN([C@H]1CCN2CCc3ccccc3[C@H]2C1)S(=O)(=O)CCCCl (relative stereo) [Example 4, N-Methyl-N-(1,3,4,6,8,11bα-hexahydro-2H-benzo[a]quinolizin-2β-yl)-3'-chloropropanesulphonamide]
